Test results taken from BindingDB's records for doi:10.3109/14756366.2011.572879 (Ataturk University, 2012).
pIC50, pKi: −log10 of the molar value. Structures can show the parent of a compound that is named as a salt.

Molecular target: T1, Glutathione reductase, mitochondrial (Homo sapiens, UniProt P00390)
T1 sequence (P00390 whole entry): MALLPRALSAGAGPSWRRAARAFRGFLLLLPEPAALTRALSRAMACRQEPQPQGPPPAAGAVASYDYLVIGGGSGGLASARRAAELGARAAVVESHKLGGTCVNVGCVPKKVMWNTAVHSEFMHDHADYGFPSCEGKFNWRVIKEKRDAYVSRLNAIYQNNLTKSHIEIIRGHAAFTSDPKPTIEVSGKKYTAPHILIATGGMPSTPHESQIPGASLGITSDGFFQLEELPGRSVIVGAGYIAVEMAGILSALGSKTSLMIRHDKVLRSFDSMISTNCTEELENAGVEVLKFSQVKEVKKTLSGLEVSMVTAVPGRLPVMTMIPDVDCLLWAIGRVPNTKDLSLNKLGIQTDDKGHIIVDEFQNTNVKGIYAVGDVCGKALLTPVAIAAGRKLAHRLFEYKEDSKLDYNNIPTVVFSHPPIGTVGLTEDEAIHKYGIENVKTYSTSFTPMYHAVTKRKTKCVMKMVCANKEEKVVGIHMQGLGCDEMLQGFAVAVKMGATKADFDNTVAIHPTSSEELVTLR
Assay: Activity Assay
Settings: pH 8; 25 °C
Experimental: The assay system contained 40 mM Tris-HCl buffer, pH 8.0, including 0.8 mM EDTA, 1 mM GSSG and 0.1 mM NADPH in 1 mL total reaction volume. The activity was measured by monitoring the decrease in absorbance at 340 nm due to the oxidationof NADPH at 25°C. One enzyme unit is defined as the oxidation of […] NADPH per min under the assay conditions.

| pIC50 | pKi | Compound |
| --- | --- | --- |
| 4.92 | 6.10 | CN1CCC(=C2c3ccccc3CC(=O)c3sccc32)CC1 [(Z)-2-butenedioate;10-(1-methyl-4-piperidinylidene)-5H-benzo[1,2]cyclohepta[3,4-b]thiophen-4-one] |
| – | 1.54 | O=C(O)CN(CCN(CC(=O)O)CC(=O)O)CCN(CC(=O)O)CC(=O)O [Gadopentetic acid] |
| 3.00 | 3.36 | OC(CNc1ccccn1)c1ccccc1 (stereo not given) [Phenyramidol-HCl] |
